Results published in ChEMBL document CHEMBL4354853, “Design, Synthesis, and Biological Evaluation of Imidazo[1,2-a]pyridine Derivatives as Novel PI3K/mTOR Dual Inhibitors” (J Med Chem, 2020).

How the values were obtained:
[1] = AUC (0 to infinity) in Sprague-Dawley rat at 1 mg/kg, iv by LC-MS/MS analysis; format: ADME, organism-based; design: dose 1 mg/kg, time infinity, route intravenous; details: in vivo
[2] = Cmax in Sprague-Dawley rat at 5 mg/kg, po by LC-MS/MS analysis; format: ADME, organism-based; design: dose 5 mg/kg, route oral; details: in vivo
[3] = Oral bioavailability in Sprague-Dawley rat at 5 mg/kg by LC-MS/MS analysis; format: ADME, organism-based; details: in vivo
[4] = Half life in Sprague-Dawley rat at 5 mg/kg, po by LC-MS/MS analysis; format: ADME, organism-based; details: in vivo
[5] = AUC (0 to infinity) in Sprague-Dawley rat at 5 mg/kg, po by LC-MS/MS analysis; format: ADME, organism-based; design: dose 5 mg/kg, route oral, time infinity; details: in vivo
[6] = Drug level in tumor of nude BALB/c mouse xenografted with human HCT116 cells at 20 mg/kg, po administered as single dose measured after 48 hrs by LC-MS/MS analysis; format: ADME, organism-based, Neoplasm; details: read-out: Drug uptake
[7] = Clearance in Sprague-Dawley rat at 1 mg/kg, iv by LC-MS/MS analysis; format: ADME, organism-based; details: in vivo
[8] = Half life in Sprague-Dawley rat at 1 mg/kg, iv by LC-MS/MS analysis; format: ADME, organism-based; details: in vivo
[9] = Volume of distribution at steady state in Sprague-Dawley rat at 1 mg/kg, iv by LC-MS/MS analysis; format: ADME, organism-based; details: in vivo, read-out: Vdss

- AUC(0-inf) [1]: 2960 ng·h/mL
- Cmax [2]: 553 ng/mL
- bioavailability [3]: 26.8%
- half-life [4]: 7.94 h
- AUC(0-inf) [5]: 3960 ng·h/mL
- concentration at 48 h [6]: 600 nM
- clearance [7]: 5.66 mL/min/kg
- half-life [8]: 4.71 h
- Vd [9]: 0.69 L/kg
Structure (SMILES): COc1ncc(-c2ccc3ncc(-c4nnc(CCN5CCN(C)CC5)o4)n3c2)cc1NS(=O)(=O)c1ccc(F)cc1F
